Results reported in US8470783B2, “Medicinal use of histone deacetylase inhibitor and method of evaluating antitumor effect thereof” (Astellas Pharma Inc., priority 2001, dated 2013).

Tests used:
[1] = system: human prostate cancer PC-3; test: In vivo growth suppression rate, PC-3 tumor-carrying mice; parameters: species or system mouse; conditions: PC-3, FR901228 3.2 mg/kg
Experimental: (§1) The growth suppression rate of human prostate cancer PC-3, human gastric cancer SC-6, human kidney cancer ACHN and human kidney cancer A498 by the administration of FR901228 (3.2 mg/kg) was 98%, 84%, 20% and 29%, respectively. Therefore, PC-3 and SC-6 were determined to be FK228 sensitive tumors, and ACHN and A498 were determined to be FK228 resistant tumors.

[2] = system: human lymphoma cell line U937; test: Survival test, human lymphoma U937 implanted intraperitoneally in SCID mice (Example 2); type: in vivo, mouse; conditions: U937, i.p. once or twice a week, 0.1-1.0 mg/kg, FIG. 2
Experimental: A necessary amount of FR901228 was weighed and a solvent (10% HCO-60/saline) was added. The mixture was sonicated to allow for dissolution.
For antitumor test of the pharmaceutical agent, Fox Chase C. B-17/Icr-SCID.Jcl mice (male, 6-week-old) were purchased from CLEA JAPAN INC. and, after acclimation for not less than one week, used for the test. The mice were reared under an SPF environment and allowed a free access to water and feed.
Cultured human lymphoma cell line (U937: obtained from Dr. Minowada, Hayashibara Biochemical Laboratories, Inc.) was cultured in RPMI (containing 10% FCS) and subcultured in vitro.
Cyclo phosphamide (Shionogi & Co., Ltd., 150 mg/kg) was intraperitoneally administered to mice. Lymphoma (1×10^7 cells) subcultured in vitro was intraperitoneally implanted the next day. After the tumor implantation, the mice were grouped into 6 (control group 12) mice per group to level the body weight.
The administration was started on the day of grouping (Day 0). FR901228 was intraperitoneally administered to an FR901228 administration group once or twice a week (0.1-1.0 mg/kg). Only a solvent (10% HCO-60/saline) was administered to a control group.
As an antitumor effect, the survival days of the mice were counted.

[3] = system: p21 gene expression in PC-3 cells; test: p21 gene expression in vitro by real time PCR, PC-3 (Example 4); type: cell-based, human; conditions: PC-3, FR901228 5 ng/mL, FIG. 4(a)
Experimental: (§2) A necessary amount of FR901228 was weighed and dissolved in a solvent (99.5% ethanol) to the concentration of 1 mg/mL. Then, the solution was diluted with culture medium.
(§3) Cultured human cancer cell (PC-3 and ACHN) were cultured in DMEM (containing 10% FCS).
(§4) The cells were inoculated at 2×10^6 cells per a culture dish, and cultured in the presence of FR901228 (5 ng/mL) for a given time. After culturing, RNA was extracted with a TRIZOL reagent (GIBCO BRL) according to the operation manual.
(§5) RNA was subjected to reverse transcription using a Taq-man reverse transcription reagent (PE Biosystem) according to the operation manual. Thereafter, p21 gene was amplified using a SYBR green PCR master mix (PE Biosystem) and primer 5′-GGCAGACCAGCATGACACATT-3′ (p21 upstream)(SEQ ID; No 1), 5′-GGATTAGGGCTTCCTCTTGGAG-3′ (SEQ ID; No 2) according to the operation manual, and detected with ABI 7700 PRISM sequence detector (PE Biosystem). The expression amount of p21 gene was calculated from a standard curve, divided by the expression amount of β-actin gene, which was used as an internal standard, and expressed in a standardized relative expression amount.

histone deacetylase = conditions: Nakajima, H. et al (1998); cited from earlier work
[4] = system: p21 gene expression in ACHN cells; test: p21 gene expression in vitro by real time PCR, ACHN (Example 4); type: cell-based, human; conditions: FR901228 5 ng/mL, FIG. 4(b)
Experimental: as §2, §3, §4, §5

[5] = system: human kidney cancer cell line ACHN; test: Antitumor test, human kidney cancer ACHN solid tumor in nude mice (Example 3); type: in vivo, mouse; conditions: i.v. q4d×3, FIG. 3(b)
Experimental: (§6) A necessary amount of FR901228 was weighed and a solvent (10% HCO-60/saline) was added. The mixture was sonicated to allow for dissolution. A positive control substance Paclitaxel was dissolved in Cremophor EL/ethanol (1:1) solution to 24 mg/mL prior to the testing, and preserved in a refrigerator. When in use, it was diluted with a 9-fold amount of physiological saline to 2.4 mg/mL (solvent component: 5% Cremophor EL-5% ethanol-90% saline).
(§7) For antitumor test of the pharmaceutical agent, BALB/cANnNCrj-nu/nu mice (male, […]) were purchased from Charles River Japan and, after acclimation for not less than one week, used for the test. The mice were reared under an SPF environment and allowed a free access to water and feed. […]
(§8) The administration was started on the day of grouping (Day 0). […] The amount of liquid for each administration was calculated (0.1 mL/10 g body weight) based on the body weight measured on the administration day. […]
(§9) The tumor size (longer diameter, shorter diameter) and body weight were measured twice a week from Day 0.
(§10) The level of tumor growth was evaluated based on the tumor growth rate (Relative Tumor Volume). […] The antitumor effect was determined on the 14th day (Day 14) from the start of the administration of a pharmaceutical agent. […]

human kidney cancer A498 = test: In vivo growth suppression rate, A498 tumor-carrying mice; parameters: species or system mouse; conditions: A498, FR901228 3.2 mg/kg
Experimental: as §1

[6] = system: human prostate cancer cell line PC-3; test: Antitumor test, human prostate cancer PC-3 solid tumor in nude mice (Example 1); type: in vivo, mouse; conditions: PC-3, i.v. q4d×3, 3.2 and 1.8 mg/kg, FIG. 1
Experimental: as §6
For antitumor test of the pharmaceutical agent, BALB/cANnNCrj-nu/nu mice (male, 6-week-old) were purchased from Charles River Japan and, after acclimation for not less than one week, used for the test. The mice were reared under an SPF environment and allowed a free access to water and feed. […]
as §8, §9
The level of tumor growth was evaluated based on the tumor growth rate (Relative Tumor Volume). […] The antitumor effect was determined on the 14th day (Day 14) from the start of the administration of the pharmaceutical agent. […]

human kidney cancer ACHN [7] = test: In vivo growth suppression rate, ACHN tumor-carrying mice; parameters: species or system mouse; conditions: FR901228 3.2 mg/kg
Experimental: as §1

[8] = system: p21 gene and c-myc gene expression in PC-3 tumor; test: p21 and c-myc gene expression in vivo in PC-3 tumor of nude mouse (Example 5); conditions: 3.2 mg/kg i.v.
Experimental: (§11) Human prostate cancer PC-3 or kidney cancer ACHN was subcutaneously implanted in a nude mouse, and when the size of the tumor reached 100-300 mg, FR901228 (3.2 mg/kg) was intravenously administered. The tumor was removed with the lapse of time, and after extracting RNA, the expression amount of p21 gene and c-myc gene was examined by real time PCR in the same manner as in Example 4. The c-myc gene was amplified using a SYBR green PCR master mix (PE Biosystem) and primer 5′-GACAGATCAGCAACAACCGAAA-3′ (human c-myc upstream)(SEQ ID; No 3), 5′-TTGTGTGTTCGCCTCTTGACAT-3′ (human c-myc downstream)(SEQ ID; No 4) according to the operation manual, and detected with ABI 7700 PRISM sequence detector (PE Biosystem).

[9] = system: human prostate cancer cell line PC-3; test: Antitumor test, human prostate cancer PC-3 solid tumor in nude mice (Example 3); type: in vivo, mouse; conditions: dose of 3.2 mg/kg i.v. q4d×3, FIG. 3(a)
Experimental: as §6, §7, §8, §9, §10

[10] = system: p21 gene and c-myc gene expression in ACHN tumor; test: p21 and c-myc gene expression in vivo in ACHN tumor of nude mouse (Example 5); conditions: 3.2 mg/kg i.v.
Experimental: as §11

[11] = system: human gastric cancer SC-6; test: In vivo growth suppression rate, SC-6 tumor-carrying mice; parameters: species or system mouse; conditions: SC-6, FR901228 3.2 mg/kg
Experimental: as §1

human kidney cancer ACHN [12] = test: In vitro growth suppression, ACHN; type: cell-based; conditions: contacted for 72 hr
[13] = system: human prostate cancer PC-3; test: In vitro growth suppression, PC-3; type: cell-based; conditions: PC-3, contacted for 72 hr
human lymphoma U937 = test: In vitro growth suppression, U937; type: cell-based; conditions: U937, contacted for 72 hr

growth suppression effect in IC50 value (human kidney cancer ACHN [12]) [ng/mL] | growth suppression effect in IC50 value [13] [ng/mL] | growth suppression effect in IC50 value (human lymphoma U937) [ng/mL] | Molecule | growth suppression rate [1] [%] | antitumor effect in vivo against human lymphoma (survival of mice) [2] | p21 gene expression in vitro [3] | histone deacetylase inhibitory activity (histone deacetylase) | p21 gene expression in vitro [4] | antitumor effect against ACHN (tumor growth rate) [5] | growth suppression rate (human kidney cancer A498) [%] | antitumor effect in vivo against human prostate cancer (tumor growth rate) [6] | growth suppression rate (human kidney cancer ACHN [7]) [%] | c-myc gene expression in vivo [8] | time of peak of p21 gene expression after administration [8] [h] | p21 gene expression in vivo ([8]; FIG. 5(a)) | antitumor effect against PC-3 (tumor growth rate) [9] | c-myc gene expression in vivo [10] | p21 gene expression in vivo ([10]; FIG. 5(a)) | growth suppression rate [11] [%]
– | – | – | C/C=C1\NC(=O)[C@H]2CSSCC/C=C/[C@H](CC(=O)N[C@H](C(C)C)C(=O)N2)OC(=O)[C@H](C(C)C)NC1=O [FR901228] | 98 | showed an antitumor effect | increased expression of the p21 gene with the lapse of time | stronger histone deacetylase inhibitory activity | did not show increased expression of p21 gene | did not show an antitumor effect | 29 | showed an antitumor effect | 20 | decreased expression | 3 | increased expression of p21 gene | potent antitumor effect | increased expression | did not show increased expression of p21 gene | 84
4.25 | 3.17 | 3.20 | FK228 | – | – | – | – | – | – | – | – | – | – | – | – | – | – | – | –
